Common to all, as to assay type: biochemical
Holding throughout (conditions): HeLa S3 lysate, sfGFP/mCherry ratio, 2 hrs at 30° C.

Assay [1] concerns BCL-2. Description: In vitro transcription-translation (IVTT) assay, BCL-2 reporter. The source says:
All reporter constructs have been cloned into the pT7CFE1-CHis plasmid (ThermoFisher #88860) using Gibson assembly procedures (NEB #E2611L). The parental pT7CFE1-CHis plasmid contains an EMCV IRES at the 5′UTR for translation initiation, a multiple-cloning site (MCS) for gene insertion, an optional C-terminal His-epitope tag, and polyA sequence in the 3′UTR to regulate mRNA stability. All reporters are designed to be inserted at the MCS to include a red fluorescent protein (mCherry), P2A self-cleaving peptide which releases the preceding mCherry protein product, and a fusion open reading frame containing a 3×FLAG epitope, a peptide sequence of interest (TEST), and green fluorescent protein (sfGFP).
Construct Plasmid Preparation: All plasmids are isolated from MACH1 cells (ThermoFisher) grown overnight in ampicillin-containing luria broth, and purified using ZymoPure Express Plasmid Midiprep Kit (Zymo Research). Constructs are sequenced verified and diluted to a working concentration of 110 ng/μL.
HeLa S3 Lysate Preparation: HeLa S3 cell pellets are acquired from Ipracell/Ipratech (Belgium) and shipped as 4 mL frozen cell pellets on dry ice for storage at −80° C. until use. The procedure for lysate preparation is as follows. Prepare 1× Lysis Buffer, cold and stored on ice:
Each preparation takes 8 cell pellets (4 ml packed volume each, approximately 1.0×10^9 cells per pellet). Thaw cell pellets from −80° C. on ice for 90 mins. Lay pellets horizontally on top of the ice and rotate every 30 mins to ensure even thawing. Once thawed, add 4 mL of cold lysis buffer to each pellet, and using a serological pipet, gently pipet up and down to break up clumps. Incubate resuspended cells in ice for an additional 30 mins (plunged into ice). During 30 min incubation, rinse and RNase-zap (Ambion) glass dounces (use loose pestle “A”), gently dry and place on ice until needed. Prepare RNase-free Eppendorf tubes for spinning and for batch storage. Add batch labels to 1.5-1.7 mL RNase-free microcentrifuge tubes (labeling scheme below). Each batch will have an extra 1.5-1.7 mL RNase-free microcentrifuge tube for 40 μL of lysate, label the top of this tube (labeling scheme below). After 30 min incubation, transfer all 8 mL of cell pellet to dounce. Cell lysis is complete after douncing 100 times. Aliquot cell lysis into 1.5-1.7 mL temporary-microcentrifuge tubes. Place tubes in centrifuge with “fins” out, and spin at 1,200×g for 5 mins. After the first spin use a 1 mL pipet to resuspend each tube and repeat spin. This acts as an additional lysis step, is more vigorous and increases lysate yield. During second spin get liquid N2 and a fresh conical tube on ice. After spin is complete, transfer supernatant (lysate) from microcentrifuge tubes into the 50 mL conical tube and keep on ice. Repeat steps 10-14 for all other cell pellets until completed. Once all cell lysate has been transferred to the 50 mL conical tube pipet to mix so the solution is homogenous. Transfer 1 mL of lysate into batch-labeled microcentrifuge tubes and flash freeze in liquid nitrogen. Be sure to pipet up and down to mix throughout transfer step. Place all tubes in the […] for long-term storage.
In vitro transcription-translation assay setup: Each assay includes a master mix containing lysate and shared components, a 96-well plate containing compound titrations for testing, a 96-well DNA plate with reporter constructs to be tested, 96-well skirted PCR plates, and 96-well flat-bottom, black, fluorescent assay plates. […]

In assay [2] the test system is CCND1. Kind of assay: In vitro transcription-translation (IVTT) assay, CCND1 reporter. Summed up:
(§1)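 Reporter: mCherry, P2A, then 3×FLAG-target peptide-sfGFP fusion, IRES-initiated; HeLa S3 lysate IVTT; cpd dilutions 30 μM−0.1 μM half-log in 100% DMSO (dilution-plate conc); DNA added last; 2 h, 30° C; PBS quench.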

Assay [3] relates to MYC. Description: In vitro transcription-translation (IVTT) assay, MYC reporter. An outline of the steps:
as §1

In assay [4] the test system is MCL-1. Description: In vitro transcription-translation (IVTT) assay, MCL-1 reporter. Summed up:
as §1

In the case of `COc1ccc(C[C@H]2NC[C@H](O)[C@H]2OC(=O)NCc2nc(Cl)c(Cl)[nH]2)cc1` [V187824, (2R,3S,4S)-4-hydroxy-2-[(4-methoxyphenyl)methyl]pyrrolidin-3-yl N-[(4,5-dichloro-1H-imidazol-2-yl)methyl]carbamate], the IC50 in assay [1], in assay [2], in assay [3] and in assay [4] was more than 30 µM each time.
Take `COc1ccc(C[C@H]2NC[C@H](O)[C@H]2OC(=O)NCc2ccncc2Cl)cc1` [V188052, (2R,3S,4S)-4-hydroxy-2-[(4-methoxyphenyl)methyl]pyrrolidin-3-yl N-[(3-chloropyridin-4-yl)methyl]carbamate]: the IC50 in assay [1] was 10 to 20 µM; in assay [3], less than 10 µM; in assay [4], less than 10 µM.
Consider `COc1ccc(C[C@H]2NC[C@H](O)[C@H]2OC(=O)NCc2cccnn2)cc1` [V187916, (2R,3S,4S)-4-hydroxy-2-[(4-methoxyphenyl)methyl]pyrrolidin-3-yl N-(pyridazin-3-ylmethyl)carbamate], for which the IC50 in assay [1], in assay [2], in assay [3] and in assay [4] was less than 10 µM throughout.
Take `COc1ccc(C[C@H]2NC[C@H](O)[C@H]2OC(=O)NCCNC(=O)[C@@H]2CCCN2)cc1` [V188015, (2R,3S,4S)-4-hydroxy-2-[(4-methoxyphenyl)methyl]pyrrolidin-3-yl N-{2-[(2S)-pyrrolidin-2-ylformamido]ethyl}carbamate]: the IC50 is more than 30 µM in assay [1], 10 to 20 µM in assay [2] and 10 to 20 µM in assay [4].
In the case of `COc1ccc(C[C@H]2NC[C@H](O)[C@H]2OC(=O)NCCc2ccc(-c3ccccc3)cc2)cc1` [V187979], the IC50 in assay [1], in assay [3] and in assay [4] was more than 30 µM in each case.
Turning to `COc1ccc(C[C@H]2NC[C@H](O)[C@H]2OC(=O)NNC(=O)c2ccccc2)cc1` [V187812, N′-({[(2R,3S,4S)-4-hydroxy-2-[(4-methoxyphenyl)methyl]pyrrolidin-3-yl]oxy}carbonyl)benzohydrazide], the IC50 in assay [1] was 10 to 20 µM; in assay [2], less than 10 µM; in assay [3], less than 10 µM; in assay [4] it was less than 10 µM.
With `COc1ccc(C[C@H]2NC[C@H](O)[C@H]2OC(=O)NCCNc2nc(N)nc3nc[nH]c23)cc1` [Cmpd V188056], the 50% inhibitory concentration (IC50) in assay [1] was more than 30 µM; in assay [2], more than 30 µM; in assay [3], 20 to 30 µM; in assay [4], more than 30 µM.
Regarding `COc1ccc(C[C@H]2NC[C@H](O)[C@H]2OC(=O)NCc2ccc(-c3ccccc3)cc2)cc1` [V187977, (2R,3S,4S)-4-hydroxy-2-[(4-methoxyphenyl)methyl]pyrrolidin-3-yl N-{[1,1′-biphenyl]-4-ylmethyl}carbamate], the concentration for half-maximal inhibition (IC50) in assay [1], in assay [2], in assay [3] and in assay [4] was more than 30 µM in each case.
Regarding `COc1ccc(C[C@H]2NC[C@H](O)[C@H]2OC(=O)NC[C@H]2CCCNC2)cc1` [V187930, (2R,3S,4S)-4-hydroxy-2-[(4-methoxyphenyl)methyl]pyrrolidin-3-yl N-[(3S)-piperidin-3-ylmethyl]carbamate], the IC50 in assay [1] was more than 30 µM; in assay [2], 20 to 30 µM; in assay [3], 20 to 30 µM; in assay [4], 20 to 30 µM.
Regarding `COc1ccc(C[C@H]2NC[C@H](O)[C@H]2OC(=O)NCC(=O)N[C@@H](C)C(N)=O)cc1` [Cmpd V188022], the IC50 in assay [1] was 20 to 30 µM; in assay [2] it was more than 30 µM; in assay [3], 10 to 20 µM; in assay [4], less than 10 µM.
Regarding `COc1ccc(C[C@H]2NC[C@H](O)[C@H]2OC(=O)NCC(=O)NCC(N)=O)cc1` [V188021, (2R,3S,4S)-4-hydroxy-2-[(4-methoxyphenyl)methyl]pyrrolidin-3-yl N-[(carbamoylmethylcarbamoyl)methyl]carbamate], the IC50 lay in the range of 20 to 30 µM in assay [1], 20 to 30 µM in assay [2], 20 to 30 µM in assay [3] and 10 to 20 µM in assay [4].
In the case of `COc1ccc(C[C@H]2NC[C@H](O)[C@H]2OC(=O)NCc2cc(Cl)[nH]n2)cc1` [Cmpd V187860], the IC50 in assay [1], in assay [2], in assay [3] and in assay [4] was less than 10 µM in each case.
On to `COc1ccc(C[C@H]2NC[C@H](O)[C@H]2OC(=O)NCCNc2ncnc3nc[nH]c23)cc1` [V188060, (2R,3S,4S)-4-hydroxy-2-[(4-methoxyphenyl)methyl]pyrrolidin-3-yl N-[2-(7H-purin-6-ylamino)ethyl]carbamate], for which the IC50 was more than 30 µM in assay [1], 20 to 30 µM in assay [2], 10 to 20 µM in assay [3] and more than 30 µM in assay [4].
Turning to `COc1ccc(C[C@H]2NC[C@H](O)[C@H]2OC(=O)NCc2ccc(I)cc2)cc1` [V187928, (2R,3S,4S)-4-hydroxy-2-[(4-methoxyphenyl)methyl]pyrrolidin-3-yl N-[(4-iodophenyl)methyl]carbamate], the IC50 in assay [1] was more than 30 µM; in assay [2], more than 30 µM; in assay [3] it was 10 to 20 µM; in assay [4] it was 10 to 20 µM.
Turning to `COc1ccc(C[C@H]2NC[C@H](O)[C@H]2OC(=O)NCc2cccc(-c3ccccc3)c2)cc1` [V187982, (2R,3S,4S)-4-hydroxy-2-[(4-methoxyphenyl)methyl]pyrrolidin-3-yl N-{[1,1′-biphenyl]-3-ylmethyl}carbamate], the 50% inhibitory concentration (IC50) in assay [1], in assay [2], in assay [3] and in assay [4] was more than 30 µM throughout.
Regarding `COc1ccc(C[C@H]2NC[C@H](O)[C@H]2OC(=O)NC[C@@H]2CCCNC2)cc1` [V187929, (2R,3S,4S)-4-hydroxy-2-[(4-methoxyphenyl)methyl]pyrrolidin-3-yl N-[(3R)-piperidin-3-ylmethyl]carbamate], the IC50 in assay [1], in assay [3] and in assay [4] was more than 30 µM throughout.
As to `COc1ccc(C[C@H]2NC[C@H](O)[C@H]2OC(=O)NCC(=O)O)cc1` [V188016], the IC50 in assay [1], in assay [2], in assay [3] and in assay [4] was more than 30 µM in each case.
Turning to `COc1ccc(C[C@H]2NC[C@H](O)[C@H]2OC(=O)NCc2ccnc(OC)c2)cc1` [V188051, (2R,3S,4S)-4-hydroxy-2-[(4-methoxyphenyl)methyl]pyrrolidin-3-yl N-[(2-methoxypyridin-4-yl)methyl]carbamate], the IC50 in assay [1], in assay [2], in assay [3] and in assay [4] was less than 10 µM throughout.
On to `COc1ccc(C[C@H]2NC[C@H](O)[C@H]2OC(=O)NCc2n[nH]nc2COCc2ccccc2)cc1` [Cmpd V187805], for which the IC50 in assay [1], in assay [2] and in assay [4] was more than 30 µM throughout.
Take `COc1ccc(C[C@H]2NC[C@H](O)[C@H]2OC(=O)NCCc2n[nH]cc2C#N)cc1` [Cmpd V188126]: the IC50 in assay [1], in assay [2] and in assay [4] was less than 10 µM each time.
Consider `COc1ccc(C[C@H]2NC[C@H](O)[C@H]2OC(=O)NCC2(F)CNC2)cc1` [V187877, (2R,3S,4S)-4-hydroxy-2-[(4-methoxyphenyl)methyl]pyrrolidin-3-yl N-[(3-fluoroazetidine-3-yl)methyl]carbamate], for which the IC50 in assay [1], in assay [2], in assay [3] and in assay [4] was more than 30 µM in each case.

As usually defined, the IC50 is the point on the concentration scale where inhibition reaches its midpoint.

The values above are taken from patent US20250129021A1, “SMALL MOLECULE PROTEIN SYNTHESIS MODULATORS” (Interdict Bio, Inc., priority 2023, published 2025).
